# Measurements published in ChEMBL document CHEMBL1201862, “PubChem BioAssay data set” (2004).
# Active and inactive are the calls of the source.
# Tests used:
# [1] = biological target: Neuropeptide Y receptor type 2 (Homo sapiens, UniProt P49146); assay: Fluorescence-based cell-based high-throughput dose response assay for agonists of NPY-Y2. [Related pubchem assays: 1703 (Screening assay (CNGC inhibitors).), 1359 (Screening assay (NPY-Y2 potentiators or agonists).), 1304 (Screening assay (NPY-Y1 potentiators or agonists).), 1710 (Screening assay (NPY-Y2 agonists).), 1791 (Summary AID.)]; type: functional
# [2] = biological target: T1, Heat shock factor protein 1 (Mus musculus, UniProt P38532); assay: decrease of HSF1-responsive luciferase luminescence – cell-based, NIH3T3, dose retest, confirmation (AID 2382); type: functional;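 note: NIH3T3 fibroblasts with HSF1-driven luciferase reporter stressed by proteasome inhibitor MG132; luminescence from HSF1-driven luciferase expression after 8 hours of MG132 stress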
# T1 sequence (P38532 whole entry): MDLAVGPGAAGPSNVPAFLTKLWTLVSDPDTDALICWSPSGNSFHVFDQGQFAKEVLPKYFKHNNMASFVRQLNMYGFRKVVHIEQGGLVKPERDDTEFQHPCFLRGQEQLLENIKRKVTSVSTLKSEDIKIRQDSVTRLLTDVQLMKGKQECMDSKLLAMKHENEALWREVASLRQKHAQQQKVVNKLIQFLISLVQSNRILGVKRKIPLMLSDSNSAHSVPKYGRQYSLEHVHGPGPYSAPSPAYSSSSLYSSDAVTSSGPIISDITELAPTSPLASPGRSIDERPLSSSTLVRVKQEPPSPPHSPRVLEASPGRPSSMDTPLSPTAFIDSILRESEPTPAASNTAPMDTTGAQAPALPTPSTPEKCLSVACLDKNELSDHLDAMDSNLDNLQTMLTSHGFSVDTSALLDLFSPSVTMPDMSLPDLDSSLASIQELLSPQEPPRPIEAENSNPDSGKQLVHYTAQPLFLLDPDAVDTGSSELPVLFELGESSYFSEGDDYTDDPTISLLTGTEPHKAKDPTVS
# [3] = biological target: Neuropeptide Y receptor type 1 (Homo sapiens, UniProt P25929); assay: Fluorescence-based counterscreen for agonists of NPY-Y2: cell-based high-throughput dose response assay for agonists of NPY-Y1.; type: functional
# HEK293 = assay: Fluorescence-based counterscreen for potentiators or agonists of NPY-Y2: cell-based high-throughput dose response assay to identify inhibitors of cyclic nucleotide gated ion channel (CNGC) activity. In this assay, the parental HEK293 cell line transfected with a cyclic-nucleotide gated ion channel (CNGC)-based cAMP sensor is used to measure inhibition of isoproterenol-induced CNGC activity by test compound.; type: functional; conditions: Homo sapiens;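 note: stimulus is 1 µM isoproterenol at EC100 plus PDE inhibitor Ro 20-1724 at 25 µM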
# [4] = NIH3T3 cell viability loss – ATP luminescence, mouse fibroblasts, counter-screen, dose response (AID 2010); type: functional, cell-based;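 note: cells exposed to compound for about 90 hours before reading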
# [5] = Trypanosoma cruzi growth suppression in host cells – NIH3T3 host cells, beta-gal luminescence, confirmation (AID 2044); type: functional, cell-based;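 note: intracellular parasites grown in NIH/3T3 mouse fibroblasts as host cells; luminescent beta-galactosidase reporter signal from transgenic T. cruzi replicating inside host cells; inhibitors lower the luminescence signal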
# BJ [6] = assay: BJ-TERT-LT-ST fibroblast viability loss – cell-based, RAS-independent, luminescence, dose response (AID 1935); type: functional; conditions: Homo sapiens;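 note: BJ fibroblasts immortalized with TERT plus LT and ST oncogenes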
# [7] = biological target: E3 ubiquitin-protein ligase Mdm2 (Homo sapiens, UniProt Q00987); assay: MDM2-luc reporter signal enhancers, multi-concentration potency testing, MDM2 ubiquitin-protein ligase inhibitor program, whole-cell format, luminescence detection, 384-well microplate (AID 1394); type: functional;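 note: MDM2 E3 inhibitors raise luminescence so EC50 is for signal enhancement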
# [8] = biological target: G2/mitotic-specific cyclin-B1 (Homo sapiens, UniProt P14635); assay: Counterscreen assay for inhibitors of Wee1 degradation: dose response cell-based assay to identify inhibitors of cyclin B degradation. [Related pubchem assays: 1410, 1321 ]; type: functional
# [9] = DRD fibroblast viability loss – cell-based, non-viral oncogenic, luminescence, dose response (AID 1934); type: functional; conditions: Homo sapiens
# HeLa = assay: Cytotoxicity counterscreen assay for transcriptional activators of heat shock protein 70 (Hsp70). [Related pubchem assays: 1203, 1252 ]; type: functional; conditions: Homo sapiens;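 note: cells exposed to compound for 16 hours before readout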
# BJ [10] = assay: cells; type: functional, cell-based; conditions: Homo sapiens
# BJ [11] = assay: BJ-TERT fibroblast viability loss – cell-based, RAS-independent, luminescence, dose response (AID 1933); type: functional; conditions: Homo sapiens
# Wee1-like protein kinase = Wee1-like protein kinase (Homo sapiens, UniProt P30291); assay: Dose Response Cell-based Assay for Inhibitors of Wee1 Degradation. [Related pubchem assays: 1410, 1321 ]; type: functional
# [12] = biological target: Lysosomal acid glucosylceramidase (Homo sapiens, UniProt P04062); assay: Dose response cell-based high throughput screening assay to identify enhancers of beta-glucosidase activity. [Related pubchem assays: 784 ]; type: functional
# [13] = biological target: T2, Heat shock 70 kDa protein 1A (Homo sapiens, UniProt P0DMV8); assay: small-molecule inhibition of Hsp70 – biochemical, TR-FRET (AID 786)
# [14] = biological target: T2, Heat shock 70 kDa protein 1A; assay: small molecules displacing fluorescent ligand from Hsp70 – biochemical, fluorescence polarization, primary screen (AID 583)
# [15] = biological target: T3, Dual specificity protein phosphatase 6 (Rattus norvegicus, UniProt Q64346);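 note: in vitro confirmatory secondary MKP-3 assay designed to detect irreversible or slow-binding inhibitors; recombinant His-tagged rat MKP-3 acting on the substrate OMFP; inhibitor potency from reduced phosphatase rate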
# T3 sequence (Q64346 whole entry): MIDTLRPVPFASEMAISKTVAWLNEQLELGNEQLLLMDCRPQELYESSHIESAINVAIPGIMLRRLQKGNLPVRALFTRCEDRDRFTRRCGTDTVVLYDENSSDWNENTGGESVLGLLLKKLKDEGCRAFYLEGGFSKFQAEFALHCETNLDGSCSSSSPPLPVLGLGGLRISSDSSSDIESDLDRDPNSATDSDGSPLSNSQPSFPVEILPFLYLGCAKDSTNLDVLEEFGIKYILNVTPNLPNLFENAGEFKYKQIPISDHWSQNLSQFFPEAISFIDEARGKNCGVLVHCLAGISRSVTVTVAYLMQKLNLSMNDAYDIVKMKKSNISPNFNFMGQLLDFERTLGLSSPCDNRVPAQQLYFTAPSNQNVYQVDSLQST
# [16] = biological target: Glyceraldehyde-3-phosphate dehydrogenase (Homo sapiens, UniProt P04406)
# [17] = biological target: T4, Tyrosine-protein phosphatase non-receptor type 7 (Homo sapiens, UniProt P35236); type: functional
# T4 sequence (P35236 whole entry): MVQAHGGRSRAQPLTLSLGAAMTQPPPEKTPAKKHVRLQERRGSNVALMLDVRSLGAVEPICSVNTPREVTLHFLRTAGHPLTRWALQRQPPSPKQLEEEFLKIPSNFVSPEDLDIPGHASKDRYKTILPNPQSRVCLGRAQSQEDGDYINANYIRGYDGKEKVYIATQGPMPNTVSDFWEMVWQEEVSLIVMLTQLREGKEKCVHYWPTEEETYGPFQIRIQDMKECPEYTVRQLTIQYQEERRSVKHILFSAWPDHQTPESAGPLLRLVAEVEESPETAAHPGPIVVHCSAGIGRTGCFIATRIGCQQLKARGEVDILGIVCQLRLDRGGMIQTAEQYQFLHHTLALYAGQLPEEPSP
# Genome polyprotein = Genome polyprotein (dengue virus type 2, UniProt P29990); assay: flavivirus cap methylation enzyme inhibition – biochemical, confirmation dose response, primary screen (AID 588689); type: functional
# [18] = biological target: Induced myeloid leukemia cell differentiation protein Mcl-1 (Homo sapiens, UniProt Q07820); type: functional
# [19] = biological target: T5, Carboxy-terminal domain RNA polymerase II polypeptide A small phosphatase 1 (Homo sapiens, UniProt Q9GZU7); assay: CTDSP1 inhibitors, concentration-response, biochemical, absorbance readout, ultra-high-throughput screen actives (AID 540297); type: functional
# T5 sequence (Q9GZU7 whole entry): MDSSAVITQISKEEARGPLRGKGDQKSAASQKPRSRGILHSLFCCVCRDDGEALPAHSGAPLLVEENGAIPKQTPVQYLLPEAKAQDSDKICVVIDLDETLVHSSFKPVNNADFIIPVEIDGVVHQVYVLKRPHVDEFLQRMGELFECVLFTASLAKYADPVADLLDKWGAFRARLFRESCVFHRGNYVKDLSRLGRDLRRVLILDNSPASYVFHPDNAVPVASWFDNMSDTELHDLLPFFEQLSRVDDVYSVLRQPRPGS
# T2 sequence (P0DMV8 whole entry): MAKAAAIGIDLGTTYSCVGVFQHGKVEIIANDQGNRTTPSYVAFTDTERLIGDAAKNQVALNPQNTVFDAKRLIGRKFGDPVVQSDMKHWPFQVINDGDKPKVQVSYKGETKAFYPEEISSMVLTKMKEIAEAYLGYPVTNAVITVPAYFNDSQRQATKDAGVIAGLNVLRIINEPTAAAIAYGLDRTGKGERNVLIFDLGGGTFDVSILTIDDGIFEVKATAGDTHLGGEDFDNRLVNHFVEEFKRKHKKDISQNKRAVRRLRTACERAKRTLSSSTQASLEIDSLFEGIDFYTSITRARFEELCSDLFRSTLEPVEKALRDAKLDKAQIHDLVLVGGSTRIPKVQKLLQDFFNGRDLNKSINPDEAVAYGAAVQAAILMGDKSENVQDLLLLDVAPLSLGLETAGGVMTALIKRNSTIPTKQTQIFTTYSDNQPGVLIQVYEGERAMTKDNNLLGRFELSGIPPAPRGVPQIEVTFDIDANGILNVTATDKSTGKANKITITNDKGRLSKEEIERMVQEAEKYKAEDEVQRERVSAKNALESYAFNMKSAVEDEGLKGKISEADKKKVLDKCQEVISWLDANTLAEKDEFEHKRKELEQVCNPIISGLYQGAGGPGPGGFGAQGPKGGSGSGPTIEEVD
# E3 ubiquitin-protein ligase Mdm2, sequence (Q00987 whole entry): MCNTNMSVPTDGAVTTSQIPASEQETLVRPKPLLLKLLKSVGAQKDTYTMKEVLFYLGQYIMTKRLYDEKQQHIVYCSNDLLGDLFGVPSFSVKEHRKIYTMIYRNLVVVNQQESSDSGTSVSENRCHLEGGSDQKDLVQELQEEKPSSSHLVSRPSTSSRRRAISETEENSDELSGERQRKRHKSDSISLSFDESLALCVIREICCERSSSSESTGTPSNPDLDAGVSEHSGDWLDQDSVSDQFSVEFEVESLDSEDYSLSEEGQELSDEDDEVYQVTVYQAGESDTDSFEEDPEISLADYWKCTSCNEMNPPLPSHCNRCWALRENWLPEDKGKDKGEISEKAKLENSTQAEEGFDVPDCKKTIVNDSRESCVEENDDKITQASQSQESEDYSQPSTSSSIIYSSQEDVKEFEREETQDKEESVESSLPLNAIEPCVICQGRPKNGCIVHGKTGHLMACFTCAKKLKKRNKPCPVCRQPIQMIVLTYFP
# Glyceraldehyde-3-phosphate dehydrogenase, sequence (P04406 whole entry): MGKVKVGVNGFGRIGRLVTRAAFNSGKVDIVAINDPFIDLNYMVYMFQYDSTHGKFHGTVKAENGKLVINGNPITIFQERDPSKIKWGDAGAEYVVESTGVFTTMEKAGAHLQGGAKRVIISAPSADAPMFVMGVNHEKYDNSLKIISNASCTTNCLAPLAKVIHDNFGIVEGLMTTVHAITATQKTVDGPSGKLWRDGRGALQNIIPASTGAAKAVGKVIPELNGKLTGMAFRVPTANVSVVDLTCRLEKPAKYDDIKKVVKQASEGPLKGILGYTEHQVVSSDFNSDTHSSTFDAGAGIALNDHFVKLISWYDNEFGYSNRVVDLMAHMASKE
# Lysosomal acid glucosylceramidase, sequence (P04062 whole entry): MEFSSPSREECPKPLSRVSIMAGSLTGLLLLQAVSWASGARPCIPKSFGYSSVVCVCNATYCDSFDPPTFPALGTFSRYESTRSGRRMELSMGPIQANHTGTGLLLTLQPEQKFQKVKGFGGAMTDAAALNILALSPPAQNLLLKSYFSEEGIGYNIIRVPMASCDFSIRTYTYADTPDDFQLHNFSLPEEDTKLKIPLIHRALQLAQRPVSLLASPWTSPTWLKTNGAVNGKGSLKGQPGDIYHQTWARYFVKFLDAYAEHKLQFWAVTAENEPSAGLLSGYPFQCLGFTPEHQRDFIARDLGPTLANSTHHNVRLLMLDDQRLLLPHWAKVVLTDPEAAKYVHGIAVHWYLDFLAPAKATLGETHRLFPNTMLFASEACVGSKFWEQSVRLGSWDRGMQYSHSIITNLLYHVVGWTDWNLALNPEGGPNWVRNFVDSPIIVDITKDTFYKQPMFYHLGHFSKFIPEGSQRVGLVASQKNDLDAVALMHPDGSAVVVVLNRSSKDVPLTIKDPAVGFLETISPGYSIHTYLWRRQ
# Neuropeptide Y receptor type 1, sequence (P25929 whole entry): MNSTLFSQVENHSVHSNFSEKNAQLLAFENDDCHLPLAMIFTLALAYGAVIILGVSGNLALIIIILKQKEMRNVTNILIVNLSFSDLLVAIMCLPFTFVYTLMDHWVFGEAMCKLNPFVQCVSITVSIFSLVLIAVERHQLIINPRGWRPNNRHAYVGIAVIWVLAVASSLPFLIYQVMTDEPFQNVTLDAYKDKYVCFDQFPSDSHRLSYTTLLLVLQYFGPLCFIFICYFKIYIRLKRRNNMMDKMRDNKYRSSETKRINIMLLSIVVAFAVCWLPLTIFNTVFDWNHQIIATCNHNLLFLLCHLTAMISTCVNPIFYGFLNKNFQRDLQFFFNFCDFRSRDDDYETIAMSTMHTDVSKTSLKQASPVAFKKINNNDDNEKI
# Genome polyprotein, sequence (P29990 2492-3391 limits assumed): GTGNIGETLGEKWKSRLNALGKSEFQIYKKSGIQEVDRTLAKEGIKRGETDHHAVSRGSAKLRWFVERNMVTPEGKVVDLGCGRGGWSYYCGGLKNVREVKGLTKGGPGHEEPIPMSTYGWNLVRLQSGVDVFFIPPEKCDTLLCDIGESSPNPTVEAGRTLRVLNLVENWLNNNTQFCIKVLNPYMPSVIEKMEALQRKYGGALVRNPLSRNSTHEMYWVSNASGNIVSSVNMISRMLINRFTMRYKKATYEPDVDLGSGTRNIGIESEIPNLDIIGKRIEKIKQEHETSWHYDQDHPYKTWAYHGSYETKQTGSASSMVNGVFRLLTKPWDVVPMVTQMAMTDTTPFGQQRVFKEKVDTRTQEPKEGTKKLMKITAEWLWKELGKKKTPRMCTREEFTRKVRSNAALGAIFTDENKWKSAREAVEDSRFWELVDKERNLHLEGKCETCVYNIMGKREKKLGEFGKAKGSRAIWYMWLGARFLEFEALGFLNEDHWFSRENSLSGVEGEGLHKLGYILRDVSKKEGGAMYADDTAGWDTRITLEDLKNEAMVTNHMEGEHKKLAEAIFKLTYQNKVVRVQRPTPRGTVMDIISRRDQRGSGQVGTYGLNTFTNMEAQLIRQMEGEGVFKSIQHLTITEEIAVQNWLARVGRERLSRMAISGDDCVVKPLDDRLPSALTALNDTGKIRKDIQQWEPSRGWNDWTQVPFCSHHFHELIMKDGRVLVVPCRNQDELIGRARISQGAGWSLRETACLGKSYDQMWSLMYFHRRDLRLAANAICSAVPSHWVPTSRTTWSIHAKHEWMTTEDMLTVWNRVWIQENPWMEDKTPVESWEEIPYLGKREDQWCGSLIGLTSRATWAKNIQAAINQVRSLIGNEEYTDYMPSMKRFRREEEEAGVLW
# G2/mitotic-specific cyclin-B1, sequence (P14635 whole entry): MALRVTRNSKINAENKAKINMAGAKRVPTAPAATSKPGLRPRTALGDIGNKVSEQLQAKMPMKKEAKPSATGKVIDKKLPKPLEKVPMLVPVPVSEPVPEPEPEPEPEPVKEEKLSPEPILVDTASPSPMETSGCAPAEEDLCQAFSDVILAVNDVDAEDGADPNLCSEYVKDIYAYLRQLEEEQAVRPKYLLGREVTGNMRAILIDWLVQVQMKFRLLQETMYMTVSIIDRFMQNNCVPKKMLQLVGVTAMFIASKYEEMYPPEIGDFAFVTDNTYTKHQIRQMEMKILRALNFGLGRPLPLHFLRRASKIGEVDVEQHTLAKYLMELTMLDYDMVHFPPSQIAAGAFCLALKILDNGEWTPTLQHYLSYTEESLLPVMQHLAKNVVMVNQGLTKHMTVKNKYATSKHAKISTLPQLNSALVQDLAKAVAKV
# Neuropeptide Y receptor type 2, sequence (P49146 whole entry): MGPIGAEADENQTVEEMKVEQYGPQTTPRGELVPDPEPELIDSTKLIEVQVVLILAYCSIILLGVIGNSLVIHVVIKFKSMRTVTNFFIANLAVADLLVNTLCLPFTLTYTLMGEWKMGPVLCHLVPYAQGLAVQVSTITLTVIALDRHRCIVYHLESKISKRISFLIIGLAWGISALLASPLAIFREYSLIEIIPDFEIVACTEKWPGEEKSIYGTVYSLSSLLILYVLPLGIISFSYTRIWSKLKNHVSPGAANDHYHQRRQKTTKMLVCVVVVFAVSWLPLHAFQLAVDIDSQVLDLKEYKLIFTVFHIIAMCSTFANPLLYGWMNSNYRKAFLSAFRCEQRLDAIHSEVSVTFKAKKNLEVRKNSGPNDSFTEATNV
# Wee1-like protein kinase, sequence (P30291 whole entry): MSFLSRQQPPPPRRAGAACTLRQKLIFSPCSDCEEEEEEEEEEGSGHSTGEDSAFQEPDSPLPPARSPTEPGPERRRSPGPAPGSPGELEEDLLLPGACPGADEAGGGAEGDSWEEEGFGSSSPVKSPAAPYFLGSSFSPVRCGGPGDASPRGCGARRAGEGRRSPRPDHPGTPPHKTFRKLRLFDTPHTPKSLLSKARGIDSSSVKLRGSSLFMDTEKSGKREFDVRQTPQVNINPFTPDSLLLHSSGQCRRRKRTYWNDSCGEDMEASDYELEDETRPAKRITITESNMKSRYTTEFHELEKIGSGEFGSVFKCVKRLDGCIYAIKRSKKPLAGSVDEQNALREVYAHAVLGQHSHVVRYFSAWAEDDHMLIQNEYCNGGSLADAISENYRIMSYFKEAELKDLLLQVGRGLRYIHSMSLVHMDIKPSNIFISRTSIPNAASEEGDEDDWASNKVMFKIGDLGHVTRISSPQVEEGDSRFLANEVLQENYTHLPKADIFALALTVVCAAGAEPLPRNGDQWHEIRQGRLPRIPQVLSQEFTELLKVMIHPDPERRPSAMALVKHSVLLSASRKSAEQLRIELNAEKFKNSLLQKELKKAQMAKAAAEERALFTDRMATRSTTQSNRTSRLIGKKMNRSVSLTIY
smiles,measurement,setting,value
COc1ccc2c(c1)c(CC(=O)Nc1nnc(C3CC3)s1)c(C)n2C(=O)c1ccc(Cl)cc1,EC50,[1],> 35.4 µM (not active)
same,EC50,[2],21.6 µM (active)
same,EC50,[3],> 35.4 µM (not active)
same,EC50,HEK293,> 35.4 µM (not active)
same,EC50,[4],5.09 µM (active)
same,EC50,[5],2.28 µM (active)
C=CS(=O)(=O)c1ccc(Oc2ccc(S(=O)(=O)C=C)cc2)cc1,EC50,BJ [6],> 150 µM (inconclusive)
same,EC50,[7],2.64 µM (active)
same,EC50,[8],> 5.53 µM (active)
same,EC50,[9],3.83 µM (active)
same,CC50,HeLa,> 1.22 µM (not active)
same,EC50,BJ [10],> 150 µM (inconclusive)
same,EC50,BJ [11],2.24 µM (inconclusive)
same,EC50,Wee1-like protein kinase,> 49.7 µM (not active)
CCCCN(CC)CCCNC(=O)c1cc2cc3ccc(OC)cc3nc2o1,EC50,[12],> 50 µM (not active)
Cc1ccc(OCCN2CCN(C(=O)CCC(=O)Nc3nnc(C)s3)CC2)cc1,IC50,[13],> 100 µM (not active)
same,IC50,[14],> 100 µM (not active)
Cc1ccc2c(c1Cl)NC(C(=O)O)C1CC(Sc3ccccc3[N+](=O)[O-])C(Cl)C21 (stereo not drawn),IC50,[15],42.6 µM (active)
same,IC50,[16],> 100 µM (not active)
same,IC50,[17],13.7 µM (active)
same,IC50,Genome polyprotein,76.9 µM (active)
same,IC50,[18],2.96 µM (active)
same,IC50,[19],2.97 µM (active)
